Tests used:
[1] = compound: CCc1cnn2c(NCc3ccc[n+]([O-])c3)cc(N3CCCC[C@H]3CCO)nc12; assay: GR value, 72 h; higher = faster growth (1 = untreated, <0 = killing);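 note: breast cancer and non-malignant breast epithelial lines, nine half-log doses, viable cells counted by Hoechst and LIVE/DEAD dye imaging versus time-zero plates and DMSO controls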
YKL-5-124 = compound: C=CC(=O)Nc1ccc(C(=O)Nc2[nH]nc3c2CN(C(=O)N[C@H](CN(C)C)c2ccccc2)C3(C)C)cc1 [YKL-5-124]; assay: as above
[2] = compound: CC(=O)c1c(C)c2cnc(Nc3ccc(N4CCNCC4)cn3)nc2n(C2CCCC2)c1=O; assay: as above
Flavopiridol [3] = compound: T1, CN1CC[C@H](c2c(O)cc(O)c3c(=O)cc(-c4ccccc4Cl)oc23)[C@H](O)C1 [Flavopiridol]; assay: as above
THZ531 = compound: CN(C)C/C=C/C(=O)Nc1ccc(C(=O)N2CCC[C@@H](Nc3ncc(Cl)c(-c4c[nH]c5ccccc45)n3)C2)cc1 [THZ531]; assay: as above
LEE011/Ribociclib = compound: CN(C)C(=O)c1cc2cnc(Nc3ccc(N4CCNCC4)cn3)nc2n1C1CCCC1 [LEE011/Ribociclib]; assay: as above
[4] = compound: CCN1CCN(Cc2ccc(Nc3ncc(F)c(-c4cc(F)c5nc(C)n(C(C)C)c5c4)n3)nc2)CC1; assay: as above
BSJ-03-123 = compound: CC(=O)c1c(C)c2cnc(Nc3ccc(N4CCN(CCOCCOCCOCCNC(=O)COc5cccc6c5C(=O)N(C5CCC(=O)NC5=O)C6=O)CC4)cn3)nc2n(C2CCCC2)c1=O [BSJ-03-123]; assay: as above
Olaparib/AZD2281 = compound: O=C(c1cc(Cc2n[nH]c(=O)c3ccccc23)ccc1F)N1CCN(C(=O)C2CC2)CC1 [Olaparib/AZD2281]
Paclitaxel = compound: CC(=O)O[C@H]1C(=O)[C@@]2(C)[C@H]([C@H](OC(=O)c3ccccc3)[C@]3(O)C[C@H](OC(=O)[C@H](O)[C@@H](NC(=O)c4ccccc4)c4ccccc4)C(C)=C1C3(C)C)[C@]1(OC(C)=O)CO[C@@H]1C[C@@H]2O [Paclitaxel]
BSJ-01-175 = compound: CN(C)C/C=C/C(=O)Nc1ccc(O[C@@H]2CCC[C@@H](Nc3ncc(Cl)c(-c4c[nH]c5ccccc45)n3)C2)cc1 [BSJ-01-175]
Flavopiridol [5] = compound: T1, Flavopiridol
Taselisib/GDC0032 = compound: Cc1nc(-c2cn3c(n2)-c2ccc(-c4cnn(C(C)(C)C(N)=O)c4)cc2OCC3)n(C(C)C)n1 [Taselisib/GDC0032]
Ipatasertib/GDC0068 = compound: CC(C)NC[C@@H](C(=O)N1CCN(c2ncnc3c2[C@H](C)C[C@H]3O)CC1)c1ccc(Cl)cc1 [Ipatasertib/GDC0068]
Luminespib/NVP-AUY922 = compound: CCNC(=O)c1noc(-c2cc(C(C)C)c(O)cc2O)c1-c1ccc(CN2CCOCC2)cc1 [Luminespib/NVP-AUY922]
ABT-737 = compound: CN(C)CC[C@H](CSc1ccccc1)Nc1ccc(S(=O)(=O)NC(=O)c2ccc(N3CCN(Cc4ccccc4-c4ccc(Cl)cc4)CC3)cc2)cc1[N+](=O)[O-] [ABT-737]
Doxorubicin = compound: COc1cccc2c1C(=O)c1c(O)c3c(c(O)c1C2=O)C[C@@](O)(C(=O)CO)C[C@@H]3O[C@H]1C[C@H](N)[C@H](O)[C@H](C)O1 [Doxorubicin]
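Throughout, for GR50, 72 h: breast cancer and non-malignant breast epithelial cell lines, Deep Dye Drop or Dye Drop imaging, nine half-log doses, GR normalized to time-zero plates and DMSO-only controls.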

184A1
GR value ([1]; 0.0001 µM): 1.04 GR | GR value ([1]; 0.0003162 µM): 1.05 GR | GR value ([1]; 0.001 µM): 1.04 GR | GR value ([1]; 0.003162 µM): 0.865 GR | GR value ([1]; 0.01 µM): 0.401 GR | GR value ([1]; 0.03162 µM): -0.275 GR | GR value ([1]; 0.1 µM): -0.222 GR | GR value ([1]; 0.3162 µM): -0.306 GR | GR value ([1]; 1 µM): -0.346 GR | GR value (YKL-5-124; 0.001 µM): 0.287 GR | GR value (YKL-5-124; 0.003162 µM): 0.204 GR | GR value (YKL-5-124; 0.01 µM): 0.116 GR | GR value (YKL-5-124; 0.03162 µM): 0.07 GR | GR value (YKL-5-124; 0.1 µM): 0.0439 GR | GR value (YKL-5-124; 0.3162 µM): 0.0314 GR | GR value (YKL-5-124; 1 µM): 0.0278 GR | GR value (YKL-5-124; 3.162 µM): -0.0126 GR | GR value (YKL-5-124; 10 µM): -0.0798 GR | GR value ([2]; 0.0003162 µM): 1.04 GR | GR value ([2]; 0.001 µM): 0.968 GR | GR value ([2]; 0.003162 µM): 0.963 GR | GR value ([2]; 0.01 µM): 0.848 GR | GR value ([2]; 0.03162 µM): 0.664 GR | GR value ([2]; 0.1 µM): 0.465 GR | GR value ([2]; 0.3162 µM): 0.324 GR | GR value ([2]; 1 µM): 0.191 GR | GR value ([2]; 3.162 µM): 0.128 GR | GR value (Flavopiridol [3]; 0.0001 µM): 1.04 GR | GR value (Flavopiridol [3]; 0.0003162 µM): 1 GR | GR value (Flavopiridol [3]; 0.001 µM): 1.01 GR | GR value (Flavopiridol [3]; 0.003162 µM): 0.931 GR | GR value (Flavopiridol [3]; 0.01 µM): 0.838 GR | GR value (Flavopiridol [3]; 0.03162 µM): 0.614 GR | GR value (Flavopiridol [3]; 0.1 µM): 0.0558 GR | GR value (Flavopiridol [3]; 0.3162 µM): -0.172 GR | GR value (Flavopiridol [3]; 1 µM): -0.307 GR | GR value (THZ531; 0.0001 µM): 1.01 GR | GR value (THZ531; 0.0003162 µM): 0.964 GR | GR value (THZ531; 0.001 µM): 0.898 GR | GR value (THZ531; 0.003162 µM): 0.954 GR | GR value (THZ531; 0.01 µM): 0.931 GR | GR value (THZ531; 0.03162 µM): 0.968 GR | GR value (THZ531; 0.1 µM): 0.814 GR | GR value (THZ531; 0.3162 µM): 0.438 GR | GR value (THZ531; 1 µM): -0.377 GR | GR value (LEE011/Ribociclib; 0.001 µM): 0.846 GR | GR value (LEE011/Ribociclib; 0.003162 µM): 0.792 GR | GR value (LEE011/Ribociclib; 0.01 µM): 0.664 GR | GR value (LEE011/Ribociclib; 0.03162 µM): 0.633 GR | GR value (LEE011/Ribociclib; 0.1 µM): 0.549 GR | GR value (LEE011/Ribociclib; 0.3162 µM): 0.552 GR | GR value (LEE011/Ribociclib; 1 µM): 0.446 GR | GR value (LEE011/Ribociclib; 3.162 µM): 0.306 GR | GR value (LEE011/Ribociclib; 10 µM): 0.11 GR | GR value ([4]; 0.001 µM): 0.939 GR | GR value ([4]; 0.003162 µM): 0.858 GR | GR value ([4]; 0.01 µM): 0.69 GR | GR value ([4]; 0.03162 µM): 0.413 GR | GR value ([4]; 0.1 µM): 0.267 GR | GR value ([4]; 0.3162 µM): 0.13 GR | GR value ([4]; 1 µM): 0.0708 GR | GR value ([4]; 3.162 µM): 0.0774 GR | GR value ([4]; 10 µM): -0.105 GR | GR value (BSJ-03-123; 0.001 µM): 0.716 GR | GR value (BSJ-03-123; 0.003162 µM): 0.636 GR | GR value (BSJ-03-123; 0.01 µM): 0.521 GR | GR value (BSJ-03-123; 0.03162 µM): 0.296 GR | GR value (BSJ-03-123; 0.1 µM): 0.243 GR | GR value (BSJ-03-123; 0.3162 µM): 0.145 GR | GR value (BSJ-03-123; 1 µM): 0.114 GR | GR value (BSJ-03-123; 3.162 µM): 0.101 GR | GR value (BSJ-03-123; 10 µM): -0.139 GR | GR50, 72 h (Olaparib/AZD2281): > 10 µM | GR50, 72 h (Paclitaxel): 0.00313 µM | GR50, 72 h (BSJ-01-175): 0.00519 µM | GR50, 72 h (Flavopiridol [5]): 0.0383 µM | GR50, 72 h (Taselisib/GDC0032): 0.192 µM | GR50, 72 h (Ipatasertib/GDC0068): > 10 µM | GR50, 72 h (Luminespib/NVP-AUY922): 0.00549 µM | GR50, 72 h (ABT-737): 3.93 µM | GR50, 72 h (Doxorubicin): 0.00333 µM
